Tests used:
[1] = molecular target: T1, 5-hydroxytryptamine receptor 2A (Homo sapiens, UniProt P28223); assay: Displacement of [3H]ketanserin from human 5-HT2A receptor expressed in HEK293 cells at 10 uM incubated for 1 hr relative to control; format: cell-based
[2] = molecular target: T2, 5-hydroxytryptamine receptor 2B (Homo sapiens, UniProt P41595); assay: Displacement of [3H]-LSD from human 5-HT2B receptor expressed in HEK cells assessed as inhibition constant incubated for 1 hr; format: cell-based
T2 sequence (P41595 whole entry): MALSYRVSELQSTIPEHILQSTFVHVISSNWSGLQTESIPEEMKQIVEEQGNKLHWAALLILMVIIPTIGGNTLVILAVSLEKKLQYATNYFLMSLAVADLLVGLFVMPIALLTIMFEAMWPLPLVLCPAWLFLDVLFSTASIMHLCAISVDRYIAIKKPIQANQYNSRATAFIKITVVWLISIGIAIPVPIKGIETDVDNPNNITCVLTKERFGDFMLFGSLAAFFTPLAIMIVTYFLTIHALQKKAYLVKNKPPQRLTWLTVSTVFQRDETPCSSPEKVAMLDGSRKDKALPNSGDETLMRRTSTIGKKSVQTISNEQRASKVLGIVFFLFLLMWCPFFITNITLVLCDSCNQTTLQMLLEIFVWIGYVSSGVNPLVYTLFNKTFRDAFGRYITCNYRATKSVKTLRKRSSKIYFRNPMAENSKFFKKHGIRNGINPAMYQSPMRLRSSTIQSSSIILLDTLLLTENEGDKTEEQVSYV

[3] = molecular target: T3, 5-hydroxytryptamine receptor 2C (Homo sapiens) (UniProt P28335); assay: Displacement of [3H]-Mesulergine from human 5-HT2C expressed in Flp-In-T-REx-293 cells at 10 uM incubated for 1 hr relative to control; format: cell-based
T3 sequence (whole entry): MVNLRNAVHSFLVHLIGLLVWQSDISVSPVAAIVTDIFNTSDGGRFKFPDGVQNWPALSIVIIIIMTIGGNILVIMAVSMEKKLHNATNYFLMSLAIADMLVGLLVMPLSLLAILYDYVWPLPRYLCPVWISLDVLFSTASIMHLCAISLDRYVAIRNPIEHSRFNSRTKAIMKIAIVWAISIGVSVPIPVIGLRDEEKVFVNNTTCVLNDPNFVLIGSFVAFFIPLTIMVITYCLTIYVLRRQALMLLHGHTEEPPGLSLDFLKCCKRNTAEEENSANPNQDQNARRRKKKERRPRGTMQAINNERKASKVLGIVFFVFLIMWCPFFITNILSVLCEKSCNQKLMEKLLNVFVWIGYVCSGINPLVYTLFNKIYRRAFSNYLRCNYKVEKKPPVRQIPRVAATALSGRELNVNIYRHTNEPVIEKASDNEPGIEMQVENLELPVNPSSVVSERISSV

[4] = molecular target: Adenosine receptor A2a (Homo sapiens) (UniProt P29274); assay: Displacement of […] from human A2AR expressed in HEK cells at 10 uM relative to control; format: cell-based
Chain of Adenosine receptor A2a (Homo sapiens) (P29274 whole entry): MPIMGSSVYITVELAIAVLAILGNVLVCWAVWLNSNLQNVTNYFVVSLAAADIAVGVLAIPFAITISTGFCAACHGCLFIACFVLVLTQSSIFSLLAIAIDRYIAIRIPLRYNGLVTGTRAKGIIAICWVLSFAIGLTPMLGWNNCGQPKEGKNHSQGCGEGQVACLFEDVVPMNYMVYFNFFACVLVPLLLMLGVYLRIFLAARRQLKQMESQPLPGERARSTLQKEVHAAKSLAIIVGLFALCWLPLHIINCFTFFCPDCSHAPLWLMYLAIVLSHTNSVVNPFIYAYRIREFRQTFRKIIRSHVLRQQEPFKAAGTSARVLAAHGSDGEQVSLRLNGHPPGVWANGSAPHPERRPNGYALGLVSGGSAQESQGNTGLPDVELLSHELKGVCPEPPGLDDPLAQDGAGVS

[5] = molecular target: T4, Adenosine receptor A3 (Homo sapiens) (UniProt P0DMS8); assay: Displacement of […] from human A3AR expressed in HEK cells at 10 uM relative to control; format: cell-based
T4 sequence (whole entry): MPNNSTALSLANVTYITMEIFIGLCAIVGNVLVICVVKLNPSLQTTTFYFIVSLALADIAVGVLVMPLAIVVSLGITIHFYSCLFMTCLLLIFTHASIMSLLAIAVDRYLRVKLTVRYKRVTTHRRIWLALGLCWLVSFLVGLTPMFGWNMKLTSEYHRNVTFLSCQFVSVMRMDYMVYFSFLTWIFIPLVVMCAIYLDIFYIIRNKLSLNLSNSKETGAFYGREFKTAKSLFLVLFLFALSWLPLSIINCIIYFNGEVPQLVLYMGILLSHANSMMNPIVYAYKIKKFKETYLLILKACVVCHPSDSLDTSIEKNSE

Mu-type opioid receptor = Mu-type opioid receptor (Homo sapiens, UniProt P35372); assay: Binding affinity to MOR (unknown origin) assessed as inhibition constant
Chain of Mu-type opioid receptor (P35372 whole entry): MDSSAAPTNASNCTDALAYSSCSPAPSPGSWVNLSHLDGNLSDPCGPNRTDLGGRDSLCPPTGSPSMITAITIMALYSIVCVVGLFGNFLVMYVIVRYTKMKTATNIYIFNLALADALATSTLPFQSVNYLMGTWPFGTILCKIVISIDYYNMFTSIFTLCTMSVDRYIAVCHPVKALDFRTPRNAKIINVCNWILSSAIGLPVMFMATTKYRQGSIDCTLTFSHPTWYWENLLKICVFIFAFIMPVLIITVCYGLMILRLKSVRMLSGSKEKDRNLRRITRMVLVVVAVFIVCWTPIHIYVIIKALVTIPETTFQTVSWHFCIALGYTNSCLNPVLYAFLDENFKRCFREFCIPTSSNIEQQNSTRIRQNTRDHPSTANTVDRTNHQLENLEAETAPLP

[6] = molecular target: T5, 5-hydroxytryptamine receptor 2C (Homo sapiens, UniProt P28335); assay: Displacement of [3H]-Mesulergine from human 5-HT2C expressed in Flp-In-T-REx-293 cells assessed as inhibition constant incubated for 1 hr; format: cell-based; settings: read-out: Ki
T5 sequence (P28335 whole entry): T3 sequence (whole entry)

Adenosine receptor A1 = molecular target: T6, Adenosine receptor A1 (Homo sapiens, UniProt P30542); assay: Displacement of […] from human A1AR expressed in Flp-In-T-REx-293 cells assessed as inhibition constant; format: cell-based
T6 sequence (P30542 whole entry): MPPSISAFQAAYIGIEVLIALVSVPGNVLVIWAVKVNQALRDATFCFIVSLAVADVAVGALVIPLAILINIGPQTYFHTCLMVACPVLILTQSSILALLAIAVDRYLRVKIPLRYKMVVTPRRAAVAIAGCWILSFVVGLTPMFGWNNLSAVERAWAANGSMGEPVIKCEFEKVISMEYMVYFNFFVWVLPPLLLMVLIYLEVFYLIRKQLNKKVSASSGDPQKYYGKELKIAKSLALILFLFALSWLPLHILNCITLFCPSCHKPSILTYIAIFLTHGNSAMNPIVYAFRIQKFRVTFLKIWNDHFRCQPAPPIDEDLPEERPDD

Adenosine receptor A3 = molecular target: T7, Adenosine receptor A3 (Homo sapiens, UniProt P0DMS8); assay: Displacement of […] from human A3AR expressed in HEK cells assessed as inhibition constant; format: cell-based
T7 sequence (P0DMS8 whole entry): T4 sequence (whole entry)

[7] = molecular target: Sodium-dependent dopamine transporter (Homo sapiens, UniProt Q01959); assay: Binding affinity to DAT (unknown origin) assessed as inhibition constant
Chain of Sodium-dependent dopamine transporter (Q01959 whole entry): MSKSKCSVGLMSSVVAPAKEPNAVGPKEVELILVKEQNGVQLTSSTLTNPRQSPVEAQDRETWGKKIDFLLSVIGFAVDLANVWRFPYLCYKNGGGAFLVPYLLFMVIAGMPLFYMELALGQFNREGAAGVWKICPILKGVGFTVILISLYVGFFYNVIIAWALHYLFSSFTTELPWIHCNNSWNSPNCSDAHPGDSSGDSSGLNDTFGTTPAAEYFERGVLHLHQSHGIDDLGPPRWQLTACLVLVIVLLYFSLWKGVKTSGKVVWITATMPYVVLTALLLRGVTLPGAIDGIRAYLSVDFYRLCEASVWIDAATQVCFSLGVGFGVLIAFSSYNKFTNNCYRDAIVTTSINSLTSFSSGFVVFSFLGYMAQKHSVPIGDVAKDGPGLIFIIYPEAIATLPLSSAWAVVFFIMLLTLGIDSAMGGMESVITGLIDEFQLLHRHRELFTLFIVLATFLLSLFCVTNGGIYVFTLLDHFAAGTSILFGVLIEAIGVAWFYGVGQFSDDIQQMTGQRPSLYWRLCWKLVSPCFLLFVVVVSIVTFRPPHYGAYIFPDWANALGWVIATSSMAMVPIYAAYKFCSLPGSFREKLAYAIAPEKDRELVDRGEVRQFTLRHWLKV

[8] = molecular target: Beta-3 adrenergic receptor (Homo sapiens, UniProt P13945); assay: Binding affinity to beta3 adrenergic receptor (unknown origin) assessed as inhibition constant
Chain of Beta-3 adrenergic receptor (P13945 whole entry): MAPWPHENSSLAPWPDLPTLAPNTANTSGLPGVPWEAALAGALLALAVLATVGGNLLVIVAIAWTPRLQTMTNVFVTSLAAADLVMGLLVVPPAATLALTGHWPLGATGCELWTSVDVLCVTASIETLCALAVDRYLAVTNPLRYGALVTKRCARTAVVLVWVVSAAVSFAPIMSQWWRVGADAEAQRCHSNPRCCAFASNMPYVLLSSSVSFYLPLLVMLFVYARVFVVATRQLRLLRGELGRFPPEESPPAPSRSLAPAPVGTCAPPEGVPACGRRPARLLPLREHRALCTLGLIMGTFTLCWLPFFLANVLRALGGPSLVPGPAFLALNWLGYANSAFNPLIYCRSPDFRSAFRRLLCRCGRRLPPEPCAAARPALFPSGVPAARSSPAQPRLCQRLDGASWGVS

[9] = molecular target: T1, 5-hydroxytryptamine receptor 2A; assay: Binding affinity to 5HT2A receptor (unknown origin) at 10 uM relative to control
[10] = molecular target: T2, 5-hydroxytryptamine receptor 2B; assay: Binding affinity to 5HT2B receptor (unknown origin) at 10 uM relative to control; settings: filed as antagonist
[11] = molecular target: T2, 5-hydroxytryptamine receptor 2B; assay: Binding affinity to 5HT2B receptor (unknown origin) assessed as inhibition constant
[12] = molecular target: T5, 5-hydroxytryptamine receptor 2C; assay: Binding affinity to 5HT2C receptor (unknown origin) assessed as inhibition constant
[13] = molecular target: T8, Adenosine receptor A1 (Homo sapiens) (UniProt P30542); assay: Binding affinity to A1AR (unknown origin) at 10 uM relative to control; settings: filed as agonist
T8 sequence (whole entry): T6 sequence (P30542 whole entry)

[14] = molecular target: T1, 5-hydroxytryptamine receptor 2A; assay: Displacement of [3H]ketanserin from human 5-HT2A receptor expressed in HEK293 cells at 10 uM incubated for 1 hr; format: cell-based
[15] = molecular target: T9, Alpha-2B adrenergic receptor (Homo sapiens, UniProt P18089); assay: Binding affinity to alpha2B receptor (unknown origin) assessed as inhibition constant
T9 sequence (P18089 whole entry): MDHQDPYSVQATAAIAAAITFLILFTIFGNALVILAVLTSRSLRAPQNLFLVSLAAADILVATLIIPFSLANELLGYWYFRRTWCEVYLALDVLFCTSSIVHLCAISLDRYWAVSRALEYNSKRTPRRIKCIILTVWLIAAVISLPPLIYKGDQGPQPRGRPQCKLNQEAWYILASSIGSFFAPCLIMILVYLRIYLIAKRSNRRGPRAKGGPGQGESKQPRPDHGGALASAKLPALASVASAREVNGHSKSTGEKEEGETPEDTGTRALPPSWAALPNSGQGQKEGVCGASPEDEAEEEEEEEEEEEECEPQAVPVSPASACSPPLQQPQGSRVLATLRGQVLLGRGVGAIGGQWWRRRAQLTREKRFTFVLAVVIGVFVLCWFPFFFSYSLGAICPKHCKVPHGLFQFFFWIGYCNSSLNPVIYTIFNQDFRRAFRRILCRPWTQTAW

T1 sequence (P28223 whole entry): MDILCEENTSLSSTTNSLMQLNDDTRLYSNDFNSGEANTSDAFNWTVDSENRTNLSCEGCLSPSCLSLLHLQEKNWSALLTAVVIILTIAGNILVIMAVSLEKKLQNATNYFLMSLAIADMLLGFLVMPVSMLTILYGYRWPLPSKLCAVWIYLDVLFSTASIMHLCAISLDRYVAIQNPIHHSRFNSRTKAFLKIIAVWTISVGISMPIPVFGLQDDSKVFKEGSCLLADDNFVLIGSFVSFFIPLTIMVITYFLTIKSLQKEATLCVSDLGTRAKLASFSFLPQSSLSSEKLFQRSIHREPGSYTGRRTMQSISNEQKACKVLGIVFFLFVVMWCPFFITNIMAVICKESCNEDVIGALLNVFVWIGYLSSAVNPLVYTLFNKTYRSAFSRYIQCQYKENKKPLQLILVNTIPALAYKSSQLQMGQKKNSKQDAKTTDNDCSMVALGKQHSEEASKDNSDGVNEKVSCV

Activity [9] [%]	SMILES	Activity [1] [%]	Ki [2] [nM]	Activity [4] [%]	Ki [6] [nM]	Ki (Adenosine receptor A3) [nM]	further results
–	O[C@H]1[C@H](n2cnc3c(NC(C4CCCC4)C4CCCC4)nc(Cl)nc32)[C@H]2C[C@@]2(CSc2ccccc2F)[C@H]1O	36	640	-10	–	–	Activity [3]: 37%; Activity [5]: 1%; Ki (Mu-type opioid receptor): 4900 nM
–	O[C@H]1[C@H](n2cnc3c(NC(C4CCCC4)C4CCCC4)nc(Cl)nc32)[C@H]2C[C@@]2(CF)[C@H]1O	36	–	21	580	7200	Ki (Adenosine receptor A1): 1620 nM; Ki [7]: 7900 nM
–	COc1ccc(SC[C@@]23C[C@@H]2[C@@H](n2cnc4c(NC(C5CCCC5)C5CCCC5)nc(Cl)nc42)[C@H](O)[C@@H]3O)cc1OC	25	256	19	368	–	Activity ([5]; filed as agonist): 78%; Ki [8]: 2100 nM
31	OC[C@H]1O[C@@H](n2cnc3c(NC(C4CCC4)C4CCC4)nc(Cl)nc32)[C@H](O)[C@@H]1O	–	–	–	–	–	Activity [10]: 47%
21	O[C@H]1[C@H](n2cnc3c(NC(C4CCC4)C4CCC4)nc(Cl)nc32)[C@H]2C[C@@]2(CSc2ccccc2F)[C@H]1O	–	–	–	–	–	Ki [11]: 601 nM; Ki [12]: 1250 nM; Activity [13]: 45%
–	CSC[C@@]12C[C@@H]1[C@@H](n1cnc3c(NC(C4CCCC4)C4CCCC4)nc(SC)nc31)[C@H](O)[C@@H]2O	–	222	-60	–	6620	Ki [14]: 9300 nM; Activity ([3]; filed as antagonist): 49%; Ki [15]: 1200 nM

Source: ChEMBL document CHEMBL5625223 (Eur J Med Chem, 2023)
